Read-outs that look alike come from different tables or passages of the source.
Tests used:
HAM patient-derived PBMC [1] = test: IL-10 and other cytokine release from HAM patient-derived PBMC (Cytokine Beads Array); type: cell-based, human; conditions: PBMC of 8 HAM patients, 12 days culture, 1-1000 nM, relative to DMSO
Procedure: PBMC taken from 8 HAM patients were suspended in a culture medium (RPMI1640 culture medium containing 10% FBS), seeded in a 48-well plate in a ratio of 5×10^5 cells per well and a compound A or compound B was added so as to provide a final concentration of 1, 10, 100 or 1000 nM. The culture solution of 0.5 mL in total was cultured at 37° C. in 5% CO2 conditions for 12 days. A group treated with DMSO and a group treated with PSL (1 μg/mL) were used as controls. Day 12 after initiation of the culture, the culture solution was centrifuged, and thereafter, the culture supernatant alone was recovered. The concentration of IL-10 in the culture supernatant was determined by use of the Cytokine Beads Array kit (BD Biosciences) and a flow cytometer FACSCantoII (BD Biosciences) (Yamauchi et al., J Infect Dis. 2015, 211 (2): 238-48). Based on the IL-10 concentration in the culture solution of the DMSO treatment group as 100%, changes in IL-10 concentration of culture solutions of groups treated with compound A and compound B different in concentration or a group treated with PSL (1 μg/mL) were compared. The significance test was carried out by using the Friedman test of GraphPad Prism6 (MDF).

EZH1 = EZH1 (Homo sapiens, UniProt Q92800); conditions: from WO2015/141616; cited from earlier work
HAM patient-derived PBMC [2] = test: Autoproliferation (3H-thymidine incorporation) of HAM patient-derived PBMC without stimulation; type: cell-based, human; conditions: for GI50: Homo sapiens, 6 days culture, 3H-thymidine; for Suppression of autoproliferation activity of HAM patient-derived PBMC: no stimulation, relative to DMSO group
Procedure: PBMC taken from 8 HAM patients were suspended in culture mediums (RPMI1640 culture medium (wako) containing 10% FBS (GIBCO)), seeded in a 96-well round-bottom plate in a ratio of 1×10^5 cells per well (3 wells were used for each concentration), and compound A or compound B was added so as to provide a final concentration of 1, 10, 100 or 1000 nM. Culture was carried out at 37° C. in 5% CO2 conditions for 6 days. The DMSO treatment group and the PSL (1 μg/mL) treatment group were used as controls. Day 6 after initiation of culture, 1 μCi ^3H-thymidine was added to each well and culture was carried out at 37° C., in 5% CO2 conditions for 16 hours. Thereafter, the cultured cells were allowed to adsorb to a glass filter (Printed Filtermat A, PerkinElmer) by a cell harvester (Tomtec MH3, PerkinElmer), dried and impregnated with solid scintillator Meltilex-A (PerkinElmer). The amount of the ^3H-thymidine incorporated in the cells was measured by use of MicroBeta (WALLAC MicroBeta TriLux 1450-021) (Yamano et al., PLoS One. 2009, 4(8): e6517). Based on the average count of ^3H-thymidine in the DMSO treatment group of HAM patients' PBMC as 100%, the relative values of the groups treated with compound A, compound B and PSL (1 μg/mL) were obtained by calculation, and then, an average value of 8 HAM patient cases was obtained. A significance test was carried out in accordance with the Friedman test of GraphPad Prism6 (MDF).
The number of patients was increased to 16 and the same experiment as above was carried out.
Effect on HAM patient-derived PBMC was checked in the same manner as in the above Example except that an EZH2 inhibitor was used in place of compounds A and B.
As the EZH2 inhibitor, GSK126 (CAS No.: 1346574-57-9) and E7438 (CAS No.: 1403254-99-8) were used. The concentration for treatment was 1, 10, 100, 1000 or 10000 nM in terms of final concentration. In the experiment, PBMC samples taken from the 8 persons before the number of cases increased in the above were used.

[3] = PBMC of 8 HAM patients, read-out: GI50, autoproliferation activity of HAM patient-derived PBMC
[4] = PBMC of 16 HAM patients, read-out: GI50, spontaneous proliferation activity of HAM patient-derived PBMC

Chain of EZH1 (Q92800 whole entry): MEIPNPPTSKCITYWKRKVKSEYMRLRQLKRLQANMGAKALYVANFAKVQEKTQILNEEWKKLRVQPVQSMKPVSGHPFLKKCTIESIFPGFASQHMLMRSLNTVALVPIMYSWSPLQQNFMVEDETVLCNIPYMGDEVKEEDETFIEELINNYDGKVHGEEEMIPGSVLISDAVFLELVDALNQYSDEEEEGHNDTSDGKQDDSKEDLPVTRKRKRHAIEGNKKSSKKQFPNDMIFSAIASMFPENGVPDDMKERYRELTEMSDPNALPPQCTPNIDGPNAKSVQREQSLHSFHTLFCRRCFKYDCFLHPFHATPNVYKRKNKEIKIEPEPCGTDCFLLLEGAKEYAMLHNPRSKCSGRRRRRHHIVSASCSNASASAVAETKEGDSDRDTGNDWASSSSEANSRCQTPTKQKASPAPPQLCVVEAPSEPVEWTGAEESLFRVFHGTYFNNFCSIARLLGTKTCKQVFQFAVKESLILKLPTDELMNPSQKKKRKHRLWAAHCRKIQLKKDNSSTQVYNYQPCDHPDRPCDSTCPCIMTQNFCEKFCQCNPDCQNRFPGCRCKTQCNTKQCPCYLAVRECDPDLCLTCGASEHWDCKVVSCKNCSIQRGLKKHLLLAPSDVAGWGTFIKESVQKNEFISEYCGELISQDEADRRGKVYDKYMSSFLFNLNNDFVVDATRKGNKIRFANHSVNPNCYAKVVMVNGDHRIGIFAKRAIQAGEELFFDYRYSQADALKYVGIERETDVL
Chain of EZH1 (O75530 whole entry partner): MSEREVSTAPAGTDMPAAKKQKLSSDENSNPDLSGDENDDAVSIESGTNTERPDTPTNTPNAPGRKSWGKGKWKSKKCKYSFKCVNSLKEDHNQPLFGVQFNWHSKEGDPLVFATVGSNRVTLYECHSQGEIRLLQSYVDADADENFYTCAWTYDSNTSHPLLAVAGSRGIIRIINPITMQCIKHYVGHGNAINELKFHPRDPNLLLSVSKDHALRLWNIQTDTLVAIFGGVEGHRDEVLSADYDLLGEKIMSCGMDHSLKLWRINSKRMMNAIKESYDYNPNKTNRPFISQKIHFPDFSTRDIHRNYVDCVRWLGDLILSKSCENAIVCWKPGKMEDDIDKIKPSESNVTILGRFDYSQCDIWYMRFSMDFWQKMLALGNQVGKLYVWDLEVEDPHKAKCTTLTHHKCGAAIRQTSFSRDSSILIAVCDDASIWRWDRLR
Chain of EZH1 (Q15022 whole entry partner): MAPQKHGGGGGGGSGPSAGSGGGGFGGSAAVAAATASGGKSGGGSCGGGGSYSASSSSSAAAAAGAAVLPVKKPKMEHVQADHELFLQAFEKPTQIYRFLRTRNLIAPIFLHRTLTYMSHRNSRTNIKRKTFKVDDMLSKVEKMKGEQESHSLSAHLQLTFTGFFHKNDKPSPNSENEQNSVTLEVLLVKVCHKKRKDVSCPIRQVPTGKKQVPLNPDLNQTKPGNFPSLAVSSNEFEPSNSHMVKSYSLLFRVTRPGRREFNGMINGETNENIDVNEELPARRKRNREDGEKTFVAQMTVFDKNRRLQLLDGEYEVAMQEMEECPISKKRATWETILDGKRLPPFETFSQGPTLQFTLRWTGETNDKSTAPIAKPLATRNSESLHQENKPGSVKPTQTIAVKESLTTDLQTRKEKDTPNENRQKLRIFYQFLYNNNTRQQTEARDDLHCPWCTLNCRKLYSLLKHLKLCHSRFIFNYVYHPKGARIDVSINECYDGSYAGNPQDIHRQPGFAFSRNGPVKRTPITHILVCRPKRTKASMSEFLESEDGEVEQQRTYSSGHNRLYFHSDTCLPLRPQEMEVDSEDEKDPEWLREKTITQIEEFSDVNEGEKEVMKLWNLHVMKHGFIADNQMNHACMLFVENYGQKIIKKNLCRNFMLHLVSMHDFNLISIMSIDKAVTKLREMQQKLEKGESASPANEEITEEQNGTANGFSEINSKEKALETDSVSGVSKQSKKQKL
Chain of EZH1 (Q09028 whole entry partner): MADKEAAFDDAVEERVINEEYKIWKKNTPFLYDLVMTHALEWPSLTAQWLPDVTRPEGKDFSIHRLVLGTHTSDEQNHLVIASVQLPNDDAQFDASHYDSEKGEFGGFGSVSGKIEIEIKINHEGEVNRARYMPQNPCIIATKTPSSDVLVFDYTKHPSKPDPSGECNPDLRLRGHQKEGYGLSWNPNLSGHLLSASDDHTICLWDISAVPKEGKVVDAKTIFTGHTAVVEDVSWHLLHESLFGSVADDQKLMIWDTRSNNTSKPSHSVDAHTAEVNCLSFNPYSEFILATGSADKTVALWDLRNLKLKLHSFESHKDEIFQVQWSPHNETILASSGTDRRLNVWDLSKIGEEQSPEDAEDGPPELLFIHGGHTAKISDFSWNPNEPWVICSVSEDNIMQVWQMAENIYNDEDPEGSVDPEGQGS

SMILES	Yield of IL-10 from PBMC (HAM patient-derived PBMC [1])	Inhibition of enzyme activity of EZH1 (EZH1)	GI50 (HAM patient-derived PBMC [2]; [3])	GI50 (HAM patient-derived PBMC [2]; [4])	Suppression of autoproliferation activity of HAM patient-derived PBMC (HAM patient-derived PBMC [2])
Cc1cc(C)c(CNC(=O)c2cc(Cl)c3c(c2C)O[C@@](C)([C@H]2CC[C@H](N(C)C)CC2)O3)c(=O)[nH]1 [compound B, (2R)-7-chloro-2-[trans-4-(dimethylamino)cyclohexyl]-N-[(4,6-dimethyl-2-oxo-1,2-dihydropyridin-3-yl)methyl]-2,4-dimethyl-1,3-benzodioxole-5-carboxamide]	dramatically increased	inhibit	33.9 nM	25.9 nM	suppressed autoproliferation activity of PBMC in all the eight HAM patient cases, in a concentration-dependent manner
Cc1cc(C)c(CNC(=O)c2cc(Br)c3c(c2C)O[C@@](C)([C@H]2CC[C@H](N(C)C)CC2)O3)c(=O)[nH]1 [compound A, (2R)-7-bromo-2-[trans-4-(dimethylamino)cyclohexyl]-N-[(4,6-dimethyl-2-oxo-1,2-dihydropyridin-3-yl)methyl]-2,4-dimethyl-1,3-benzodioxole-5-carboxamide]	dramatically increased	inhibit	73 nM	45.6 nM	suppressed autoproliferation activity of PBMC in all the eight HAM patient cases, in a concentration-dependent manner

Reference: US11311524B2, “Pharmaceutical composition used for treatment of HTLV-1-associated myelopathy” (DAIICHI SANKYO COMPANY, LIMITED, priority 2017, dated 2022)
